In patent US20030212123A1, “COX-2 selective carprofen for treating pain and inflammation in dogs” (Pfizer Inc., priority 1997, published 2003):
Values joined by “and” are separate entries in the source; they are usually repeats but may differ in a detail not shown here. Equal entries are not always repeated. Where two headings read alike, the source gives them in different places.

Tests used:
canine COX-1 = biological target: T1, canine COX-1 (Canis lupus familiaris, UniProt Q8HZR1); assay: Canine COX-1 activity: washed canine platelets, A23187-stimulated TXB2 by EIA; assay type: cell-based, dog; conditions: results of repeated tests averaged
T1 construct: from tissue; host or cells: washed platelets from donor dog blood
T1 sequence (Q8HZR1 28-603): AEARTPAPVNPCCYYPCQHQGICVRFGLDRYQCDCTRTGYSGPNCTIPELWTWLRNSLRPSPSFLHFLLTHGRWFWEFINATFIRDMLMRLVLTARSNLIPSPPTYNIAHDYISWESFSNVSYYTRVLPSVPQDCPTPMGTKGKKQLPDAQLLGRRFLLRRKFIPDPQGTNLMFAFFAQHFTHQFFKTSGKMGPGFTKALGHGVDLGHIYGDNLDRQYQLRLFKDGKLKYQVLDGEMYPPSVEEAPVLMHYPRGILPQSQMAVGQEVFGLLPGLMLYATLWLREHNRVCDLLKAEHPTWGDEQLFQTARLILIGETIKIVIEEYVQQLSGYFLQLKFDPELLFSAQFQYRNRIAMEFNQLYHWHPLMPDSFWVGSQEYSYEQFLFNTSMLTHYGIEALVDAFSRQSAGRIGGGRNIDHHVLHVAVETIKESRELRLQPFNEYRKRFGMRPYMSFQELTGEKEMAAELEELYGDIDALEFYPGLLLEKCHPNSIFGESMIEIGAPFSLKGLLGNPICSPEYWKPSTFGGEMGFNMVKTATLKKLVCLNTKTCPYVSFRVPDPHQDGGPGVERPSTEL
Protocol: Protocol for Evaluation of Canine COX-1 Activity
Test drug compounds were solubilized and diluted the day before the assay was to be conducted with 0.1 mL of DMSO/9.9 mL of Hank's balanced salts solution (HBSS), and stored overnight at 4° C. On the day that the assay was carried out, citrated blood was drawn from a donor dog, centrifuged at 190×g for 25 min at room temperature, and the resulting platelet-rich plasma was then transferred to a new tube for further procedures. The platelets were washed by centrifuging at 1500×g for 10 min at room temperature. The platelets were washed with platelet buffer comprising Hank's buffer (Ca free) with 0.2% bovine serum albumin (BSA) and 20 mM HEPES. […] Then, 100 μl of canine washed platelets were added and the samples were incubated at 37° C. for 15 min, after which the reaction was stopped by adding 20 μl of 77 mM EDTA. The plates were then centrifuged at 2000×g for 10 min at […], after which 50 μl of supernatant was assayed for thromboxane B2 (TXB2) by enzyme-immunoassay (EIA).

COX-1 [1] = biological target: T2, COX-1 (Canis lupus familiaris, UniProt Q8HZR1); assay: Canine whole blood ex vivo COX-1 activity (A23187-stimulated TXB2), Example 2; assay type: in vivo, dog; conditions: for TXB2 Pg/mL/Well: group average; for inhibition at 2 mg/kg / inhibition at 10 mg/kg: dog, po, based on zero hour value, read-out: COX-1 activity Percent Inhibition
T2 construct: using an ex vivo procedure on canine whole blood; from tissue; host or cells: whole blood of dosed dogs, stimulated with calcium ionophore A23187
T2 sequence (Q8HZR1 28-603): T1 sequence (Q8HZR1 28-603)
Source text: Plasma dilution was not factored in said data values.

COX-2 = COX-2 (Canis lupus familiaris, UniProt Q8SPQ9); assay: in vivo; conditions: for PGE2 Pg/mL/Well: individual dogs; for inhibition at 2 mg/kg / inhibition at 4 mg/kg: dog, po
COX-2, sequence (Q8SPQ9 18-604): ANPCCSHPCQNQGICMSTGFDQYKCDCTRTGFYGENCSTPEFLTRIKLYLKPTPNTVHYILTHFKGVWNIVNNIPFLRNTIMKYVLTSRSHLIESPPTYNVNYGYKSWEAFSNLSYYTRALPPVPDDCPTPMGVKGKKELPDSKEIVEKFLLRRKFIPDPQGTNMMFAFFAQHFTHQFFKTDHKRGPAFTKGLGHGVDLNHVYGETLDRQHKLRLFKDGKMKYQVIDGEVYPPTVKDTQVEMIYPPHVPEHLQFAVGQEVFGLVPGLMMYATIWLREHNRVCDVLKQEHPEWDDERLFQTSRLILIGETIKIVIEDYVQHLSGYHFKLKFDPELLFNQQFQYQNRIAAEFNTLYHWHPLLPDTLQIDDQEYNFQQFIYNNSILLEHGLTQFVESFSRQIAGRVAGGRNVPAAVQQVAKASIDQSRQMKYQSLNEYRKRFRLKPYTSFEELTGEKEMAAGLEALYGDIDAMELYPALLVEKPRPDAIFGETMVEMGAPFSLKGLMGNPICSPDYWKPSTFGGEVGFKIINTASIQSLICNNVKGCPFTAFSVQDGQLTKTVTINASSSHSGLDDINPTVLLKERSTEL
Protocol: A zero-hour blood sample was collected from all dogs in the study prior to dosing, followed by 2- and 4-hour post-dose blood sample collections. Test tubes were prepared containing 2 μL of lipopolysaccharide (LPS) to give a 10 μg/mL final concentration. Untreated test tubes were used as controls. A 500 μL sample of blood was added to each of the above-described test tubes, after which they were incubated at 37° C. overnight. After incubation […] of EDTA was added to give a final concentration of 0.3%. The incubated samples were centrifuged at 4° C. and the resulting plasma sample of 200 μL was collected and stored at −20° C. in propylene 96-well plates. Enzyme immunoassay (EIA) kits available from Cayman were used to measure production of PGE2, with endpoint determination by colorimetry. Plasma samples were diluted to 1/750 for PGE2.

COX-1 [2] = biological target: T2, COX-1; assay: Ex vivo COX-1 whole blood assay (TXB2) run in the carrageenan study, Example 4; parameters: species or system dog; conditions: 2 mg/kg PO, any of the timepoints tested
Source text: The experiment was run in two replicates.
Table 5 illustrates that carrageenan induced almost a 4-fold increase in PGE2 synthesis in the whiffle ball over background levels.

[3] = biological target: COX-2 (derived from lipopolysaccharide stimulated J774.2 macrophages) (Mus musculus, UniProt Q05769); conditions: cited from earlier work
COX-2 (derived from lipopolysaccharide stimulated J774.2 macrophages), sequence (Q05769 18-604): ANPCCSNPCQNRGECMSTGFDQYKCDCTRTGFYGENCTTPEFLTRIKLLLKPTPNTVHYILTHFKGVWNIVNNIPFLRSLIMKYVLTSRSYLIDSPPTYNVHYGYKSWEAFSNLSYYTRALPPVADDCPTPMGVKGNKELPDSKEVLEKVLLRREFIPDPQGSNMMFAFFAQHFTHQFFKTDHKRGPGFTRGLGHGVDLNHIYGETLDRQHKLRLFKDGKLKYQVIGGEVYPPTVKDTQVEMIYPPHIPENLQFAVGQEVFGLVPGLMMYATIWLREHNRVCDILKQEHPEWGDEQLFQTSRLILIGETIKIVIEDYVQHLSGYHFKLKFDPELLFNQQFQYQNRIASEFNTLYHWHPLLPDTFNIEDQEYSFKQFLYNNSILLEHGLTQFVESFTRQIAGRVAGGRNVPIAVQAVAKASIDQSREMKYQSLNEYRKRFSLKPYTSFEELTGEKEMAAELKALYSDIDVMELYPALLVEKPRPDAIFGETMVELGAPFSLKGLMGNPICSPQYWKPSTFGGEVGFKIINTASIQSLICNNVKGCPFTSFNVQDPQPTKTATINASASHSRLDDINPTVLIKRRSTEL

[4] = inspection of plot of plasma level vs % COX-2 inhibition (Example 3 data)

CC(C(=O)O)c1ccc2c(c1)[nH]c1ccc(Cl)cc12 (racemic) [Carprofen (rac.), 6-chloro-α-methyl-9H-carbazole-2-acetic acid]
IC50 (canine COX-1): 13.2 µM
TXB2 Pg/mL/Well (COX-1 [1]; 2 mg/kg PO capsule, 0-hour (pre-dose)): 72 Pg/mL/Well
TXB2 Pg/mL/Well (COX-1 [1]; 2 mg/kg PO capsule, 1-hour post-dose): 75 Pg/mL/Well
TXB2 Pg/mL/Well (COX-1 [1]; 2 mg/kg PO capsule, 3-hour post-dose): 66 Pg/mL/Well
TXB2 Pg/mL/Well (COX-1 [1]; 2 mg/kg PO capsule, 6-hour post-dose): 46 Pg/mL/Well
TXB2 Pg/mL/Well (COX-1 [1]; 10 mg/kg PO capsule, 0-hour (pre-dose)): 51 Pg/mL/Well
TXB2 Pg/mL/Well (COX-1 [1]; 10 mg/kg PO capsule, 1-hour post-dose): 31 Pg/mL/Well
TXB2 Pg/mL/Well (COX-1 [1]; 10 mg/kg PO capsule, 3-hour post-dose): 6 Pg/mL/Well
TXB2 Pg/mL/Well (COX-1 [1]; 10 mg/kg PO capsule, 6-hour post-dose): 7 Pg/mL/Well
inhibition at 2 mg/kg (COX-1 [1]; 2 mg/kg PO capsule, 1-hour): 0%
inhibition at 2 mg/kg (COX-1 [1]; 2 mg/kg PO capsule, 3-hour): 8%
inhibition at 2 mg/kg (COX-1 [1]; 2 mg/kg PO capsule, 6-hour): 36%
inhibition at 10 mg/kg (COX-1 [1]; 10 mg/kg PO capsule, 1-hour): 39%
inhibition at 10 mg/kg (COX-1 [1]; 10 mg/kg PO capsule, 3-hour): 88%
inhibition at 10 mg/kg (COX-1 [1]; 10 mg/kg PO capsule, 6-hour): 86%
PGE2 Pg/mL/Well (COX-2; 2 mg/kg PO tablet, 0-hour (pre-dose)): 293 Pg/mL/Well and 541 Pg/mL/Well and 409 Pg/mL/Well
PGE2 Pg/mL/Well (COX-2; 4 mg/kg PO tablet, 0-hour (pre-dose)): 471 Pg/mL/Well and 393 Pg/mL/Well and 622 Pg/mL/Well
PGE2 Pg/mL/Well (COX-2; 4 mg/kg PO tablet, 2-hour post-dose): 25 Pg/mL/Well and 21 Pg/mL/Well and 14 Pg/mL/Well
PGE2 Pg/mL/Well (COX-2; 4 mg/kg PO tablet, 4-hour post-dose): 20 Pg/mL/Well and 25 Pg/mL/Well and 14 Pg/mL/Well
inhibition at 2 mg/kg (COX-2; read-out: COX-2 activity Percent Inhibition, 2 mg/kg PO tablet, 2-hour, based on each dog's zero hour value): 88%
inhibition at 2 mg/kg (COX-2; read-out: COX-2 activity Percent Inhibition, 2 mg/kg PO tablet, 4-hour, based on each dog's zero hour value): 77%
inhibition at 4 mg/kg (COX-2; read-out: COX-2 activity Percent Inhibition, 4 mg/kg PO tablet, 2-hour, based on each dog's zero hour value): 95%
inhibition at 4 mg/kg (COX-2; read-out: COX-2 activity Percent Inhibition, 4 mg/kg PO tablet, 4-hour, based on each dog's zero hour value): 96%
plasma carprofen concentration at which 80% COX-2 inhibition occurred (COX-2; [4]): approximately 10 μg/mL
plasma carprofen concentration at which 90% COX-2 inhibition occurred (COX-2; [4]): approximately 20 μg/mL
ex vivo COX-1 inhibition of TXB2 (COX-1 [2]): no inhibition of TXB2
IC50 ([3]; read-out: IC50 (μM) COX-2, as shown by Battistini et al.): 11 µM
IC50 ([3]; read-out: IC50 (μg/mL) COX-2, n=9, LPS stimulated J774.2 macrophages): 11 µM
